Results from US20260027101A1, “BACTERIAL TOPOISOMERASE INHIBITORS” (priority 2022, published 2026).
≈ marks a conversion by molar mass, not a printed value.

What was measured:
Type in all cases: cell-based
[1] = tested on: Staphylococcus aureus D83N (29213-derived strain, GyrA substitution); assay: microbe, parasite or virus in culture; conditions: read-out: MIC against Staphylococcus aureus D83N
Protocol: (§1) Minimum inhibitory concentrations (MICs) were determined in triplicate according to Clinical and Laboratory Standards Institute (CLSI) guidelines using one or more strains of S. aureus or selected Gram-negative bacteria. […] Compounds were also assayed using a USA300 (Hidron, A. I., et al., Emergence of Community-Acquired Meticillin-Resistant Staphylococcus aureus Strain USA300 as a Cause of Necrotising Community-Onset Pneumonia. Lancet Infect. Dis. 2009, 9. 384-392) isolate of MRSA as well as a S. aureus strain isolated from a cystic fibrosis patient.

[2] = tested on: Staphylococcus aureus M121K (29213-derived strain, GyrA substitution); assay: microbe, parasite or virus in culture; conditions: read-out: MIC against Staphylococcus aureus M121K
Protocol: as §1

[3] = tested on: Salmonella enterica 14028 ΔtolC (efflux-deficient strain); assay: microbe, parasite or virus in culture; conditions: Salmonella enterica, read-out: MIC against Salmonella enterica 14028 ΔtolC
Protocol: as §1

[4] = tested on: Pseudomonas aeruginosa ATCC 27853; assay: MIC, Pseudomonas aeruginosa ATCC 27853; conditions: ATCC27853, read-out: MIC against Pseudomonas aeruginosa ATCC 27853
Protocol: as §1

[5] = tested on: Salmonella enterica ATCC 14028; assay: MIC, Salmonella enterica ATCC 14028; conditions: ATCC14028, read-out: MIC against Salmonella enterica ATCC 14028
Protocol: as §1

[6] = tested on: Staphylococcus aureus CF isolate; assay: MIC, S. aureus cystic fibrosis isolate (CLSI); conditions: read-out: MIC against Staphylococcus aureus CF isolate
Protocol: as §1

[7] = tested on: Staphylococcus aureus USA300 (MRSA isolate); assay: MIC, S. aureus USA300 MRSA isolate (CLSI); conditions: read-out: MIC against Staphylococcus aureus USA300
Protocol: as §1

[8] = tested on: Staphylococcus aureus ATCC 29213; assay: MIC, S. aureus ATCC 29213 (CLSI); conditions: ATCC29213, read-out: MIC against Staphylococcus aureus ATCC 29213
Protocol: as §1

SMILES	MIC [1] [µg/mL]	MIC [2] [µg/mL]	MIC [3] [µg/mL]	also measured
COc1ccc2ncc(F)c(CCN3CCC(C(O)C(O)c4ccc(C)cc4)CC3)c2n1 (single isomer, unassigned) [Example 13, 1-(1-(2-(3-fluoro-6-methoxy-1,5-naphthyridin-4-yl)ethyl)piperidin-4-yl)-2-(p-tolyl)ethane-1,2-diol]	> 32			
COc1ccc2ncc(F)c(CCN3CCC([C@@H](O)[C@H](O)c4ccc5c(c4)NC(=O)CO5)CC3)c2n1 [Example 6, 6-((1R,2R)-2-(1-(2-(3-fluoro-6-methoxy-1,5-naphthyridin-4-yl)ethyl)piperidin-4-yl)-1,2-dihydroxyethyl)-2H-benzo[b][1,4]oxazin-3(4H)-one]	> 32	> 32		
COc1ccc2ncc(F)c(CCN3CCC([C@@H](O)[C@H](O)c4ccc(C)cc4)CC3)c2n1 [Example 4, (1R,2R)-1-(1-(2-(3-fluoro-6-methoxy-1,5-naphthyridin-4-yl)ethyl)piperidin-4-yl)-2-(p-tolyl)ethane-1,2-diol]			0.5 to 1 (≈ 1.14 to 2.28 µM)	
COc1ccc2ncc(F)c(CCN3CCC(CCc4ccc5c(c4)NC(=O)CO5)CC3)c2n1 [Example 21, 6-(2-(1-(2-(3-fluoro-6-methoxy-1,5-naphthyridin-4-yl)ethyl)piperidin-4-yl)ethyl)-2H-benzo[b][1,4]oxazin-3(4H)-one]		64 (≈ 138 µM)		
COc1ccc2ncc(F)c(CCN3CCC(C(N)Cc4ccc(C)cc4)CC3)c2n1 (stereo not drawn) [Example 28, 1-(1-(2-(3-fluoro-6-methoxy-1,5-naphthyridin-4-yl)ethyl)piperidin-4-yl)-2-(p-tolyl)ethan-1-amine]	32 (≈ 75.7 µM)	> 32		
COc1ccc2ncc(F)c(CCN3CCC(C(O)Cc4ccc5c(c4)OCC(=O)N5)CC3)c2n1 (stereo not drawn) [Example 27, 7-(2-(1-(2-(3-fluoro-6-methoxy-1,5-naphthyridin-4-yl)ethyl)piperidin-4-yl)-2-hydroxyethyl)-2H-benzo[b][1,4]oxazin-3(4H)-one]		32 (≈ 66.6 µM)	≤ 0.125	
COc1ccc2ncc(F)c(CCN3CCC(CCc4ccc5c(c4)OCCO5)CC3)c2n1 [Example 20, 8-(2-(4-(2-(2,3-dihydrobenzo[b][1,4]dioxin-6-yl)ethyl)piperidin-1-yl)ethyl)-7-fluoro-2-methoxy-1,5-naphthyridine]	8 (≈ 17.7 µM)	> 8	0.25 (≈ 0.554 µM)	
COc1ccc2ncc(F)c(CCN3CCC(CCc4ccc(C)cc4)CC3)c2n1 [Example 19, 7-fluoro-2-methoxy-8-(2-(4-(4-methylphenethyl)piperidin-1-yl)ethyl)-1,5-naphthyridine]	4 (≈ 9.82 µM)	> 16		
COc1ccc2ncc(F)c(CCN3CCC(/C=C\c4ccc(C)cc4)CC3)c2n1 [Example 10, (Z)-7-fluoro-2-methoxy-8-(2-(4-(4-methylstyryl)piperidin-1-yl)ethyl)-1,5-naphthyridine]	32 (≈ 78.9 µM)	32 (≈ 78.9 µM)	8 (≈ 19.7 µM)	
COc1ccc2ncc(F)c(CCN3CCC(C(O)C(O)c4ccc5c(c4)NC(=O)CO5)CC3)c2n1 (single isomer, unassigned) [Example 15, 6-(-2-(1-(2-(3-fluoro-6-methoxy-1,5-naphthyridin-4-yl)ethyl)piperidin-4-yl)-1,2-dihydroxyethyl)-2H-benzo[b][1,4]oxazin-3(4H)-one]			0.5 (≈ 1.01 µM)	
COc1ccc2ncc(F)c(CCN3CCC(/C=C/c4ccc(C)cc4)CC3)c2n1 [Example 1, (E)-7-fluoro-2-methoxy-8-(2-(4-(4-methylstyryl)piperidin-1-yl)ethyl)-1,5-naphthyridine]		2 to 4 (≈ 4.93 to 9.86 µM)	0.5 to 1 (≈ 1.23 to 2.47 µM)	
COc1ccc2ncc(F)c(CCN3CCC([C@H](O)[C@@H](O)c4ccc(C)cc4)CC3)c2n1 [Example 7, (1S,2S)-1-(1-(2-(3-fluoro-6-methoxy-1,5-naphthyridin-4-yl)ethyl)piperidin-4-yl)-2-(p-tolyl)ethane-1,2-diol]	> 32	> 32		
COc1ccc2ncc(F)c(CCN3CCC(C(O)Cc4ccc(C)cc4)CC3)c2n1 (stereo not drawn) [Example 25, 1-(1-(2-(3-fluoro-6-methoxy-1,5-naphthyridin-4-yl)ethyl)piperidin-4-yl)-2-(p-tolyl)ethan-1-ol]	8 (≈ 18.9 µM)	8 (≈ 18.9 µM)	1 (≈ 2.36 µM)	
COc1ccc2ncc(F)c(CCN3CCC(C(=O)Cc4ccc5c(c4)OCCO5)CC3)c2n1 [Example 23, 2-(2,3-dihydrobenzo[b][1,4]dioxin-6-yl)-1-(1-(2-(3-fluoro-6-methoxy-1,5-naphthyridin-4-yl)ethyl)piperidin-4-yl)ethan-1-one]	32 (≈ 68.7 µM)	> 32		MIC [4]: > 64 µg/mL; MIC [5]: > 64 µg/mL; MIC [6]: 8 µg/mL (≈ 17.2 µM)
COc1ccc2ncc(F)c(CCN3CCC(C(O)Cc4ccc5c(c4)OCCO5)CC3)c2n1 (stereo not drawn) [Example 26, 2-(2,3-dihydrobenzo[b][1,4]dioxin-6-yl)-1-(1-(2-(3-fluoro-6-methoxy-1,5-naphthyridin-4-yl)ethyl)piperidin-4-yl)ethan-1-ol]	4 (≈ 8.56 µM)	4 (≈ 8.56 µM)		
CN[C@H](CC(C)C)C(=O)N[C@H]1C(=O)N[C@@H](CC(N)=O)C(=O)N[C@H]2C(=O)N[C@H]3C(=O)N[C@H](C(=O)N[C@H](C(=O)O)c4cc(O)cc(O)c4-c4cc3ccc4O)[C@H](O)c3ccc(c(Cl)c3)Oc3cc2cc(c3O[C@@H]2O[C@H](CO)[C@@H](O)[C@H](O)[C@H]2O[C@H]2C[C@](C)(N)[C@H](O)[C@H](C)O2)Oc2ccc(cc2Cl)[C@H]1O [vancomycin, reference compound]	1 (≈ 0.69 µM)	1 (≈ 0.69 µM)		MIC [7]: 1 µg/mL (≈ 0.69 µM); MIC [8]: 1 to 2 µg/mL (≈ 0.69 to 1.38 µM); MIC [6]: 1 µg/mL (≈ 0.69 µM)
COc1ccc2ncc(F)c(CCN3CCC(C(N)Cc4ccc5c(c4)NC(=O)CO5)CC3)c2n1 (stereo not drawn) [Example 30, 6-(2-amino-2-(1-(2-(3-fluoro-6-methoxy-1,5-naphthyridin-4-yl)ethyl)piperidin-4-yl)ethyl)-2H-benzo[b][1,4]oxazin-3(4H)-one]		> 64		
COc1ccc2ncc(F)c(CCN3CCC([C@H](O)[C@@H](O)c4ccc5c(c4)NC(=O)CO5)CC3)c2n1 [Example 9, 6-((1S,2S)-2-(1-(2-(3-fluoro-6-methoxy-1,5-naphthyridin-4-yl)ethyl)piperidin-4-yl)-1,2-dihydroxyethyl)-2H-benzo[b][1,4]oxazin-3(4H)-one]	> 32	> 32	0.25 (≈ 0.503 µM)	
COc1ccc2ncc(F)c(CCN3CCC(C(N)Cc4ccc5c(c4)OCCO5)CC3)c2n1 (stereo not drawn) [Example 29, 2-(2,3-dihydrobenzo[b][1,4]dioxin-6-yl)-1-(1-(2-(3-fluoro-6-methoxy-1,5-naphthyridin-4-yl)ethyl)piperidin-4-yl)ethan-1-amine]	> 16	> 16		
COc1ccc2ncc(F)c(CCN3CCC([C@@H](O)[C@H](O)c4ccc5c(c4)OCCO5)CC3)c2n1 [Example 5, (1R,2R)-1-(2,3-dihydrobenzo[b][1,4]dioxin-6-yl)-2-(1-(2-(3-fluoro-6-methoxy-1,5-naphthyridin-4-yl)ethyl)piperidin-4-yl)ethane-1,2-diol]			0.5 (≈ 1.03 µM)	
COc1ccc2ncc(F)c(CCN3CCC(C(O)C(O)c4ccc(C)cc4)CC3)c2n1 (single isomer, unassigned) [Example 16, 1-(1-(2-(3-fluoro-6-methoxy-1,5-naphthyridin-4-yl)ethyl)piperidin-4-yl)-2-(p-tolyl)ethane-1,2-diol]		4 (≈ 9.1 µM)		
